One assay addresses T1, human PPARdelta (Homo sapiens, UniProt Q03181).
T1 construct: amino acids S139-Y441; expressed in transfected cells; plasmid pcDNA3
T1 sequence (Q03181 139-441): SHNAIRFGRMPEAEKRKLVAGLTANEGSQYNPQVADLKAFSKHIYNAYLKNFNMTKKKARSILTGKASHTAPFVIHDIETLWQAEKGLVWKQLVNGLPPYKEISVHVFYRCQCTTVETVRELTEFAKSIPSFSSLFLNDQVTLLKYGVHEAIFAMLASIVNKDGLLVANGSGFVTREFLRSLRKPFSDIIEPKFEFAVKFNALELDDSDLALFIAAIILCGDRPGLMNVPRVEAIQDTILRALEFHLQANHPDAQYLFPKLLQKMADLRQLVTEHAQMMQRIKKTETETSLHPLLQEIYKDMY
The assay is described as follows: Cellular PPARdelta assay (human GAL4 luciferase reporter, stably transfected HEK cell line). In kind it is cell-based. The method, then: Determination of EC50 Values of PPAR Agonists in the Cellular PPARdelta Assay
(§1) The potency of substances which bind to human PPARdelta and activate it in an agonistic manner is analyzed using a stably transfected HEK cell line (HEK=human embryo kidney) which is referred to here as PPARdelta reporter cell line. In analogy to the assay described for PPARalpha, the PPARdelta reporter cell line also contains two genetic elements, a luciferase reporter element (pdeltaM-GAL4-Luc-Zeo) and a PPARdelta fusion protein (GR-GAL4-humanPPARdelta-LBD) which mediates expression of the luciferase reporter element depending on a PPARdelta ligand. The stably and constitutively expressed fusion protein GR-GAL4-humanPPARdelta-LBD binds in the cell nucleus of the PPARdelta reporter cell line via the GAL4 protein portion to the GAL4 DNA binding motifs 5′-upstream of the luciferase reporter element which is stably integrated in the genome of the cell line. There is only little expression of the luciferase reporter gene in the absence of a PPARdelta ligand if fatty acid-depleted fetal calf serum (cs-FCS) is used in the assay. PPARdelta ligands bind and activate the PPARdelta fusion protein and thereby stimulate expression of the luciferase reporter gene. The luciferase which is formed can be detected by means of chemiluminescence via an appropriate substrate.
Construction of the PPARdelta Reporter Cell Line
The production of the stable PPARdelta reporter cell line is based on a stable HEK-cell clone which was stably transfected with a luciferase reporter element. This step was already described above in the section “construction of the PPARalpha reporter cell line”. In a second step, the PPARdelta fusion protein (GR-GAL4-humanPPARdelta-LBD was stably introduced into this cell clone. For this purpose, the cDNA coding for the N-terminal 76 amino acids of the glucocorticoid receptor (Accession #P04150) was linked to the cDNA section coding for amino acids 1-147 of the yeast transcription factor GAL4 (Accession #P04386). The cDNA of the ligand-binding domain of the human PPARdelta receptor (amino acids S139-Y441; Accession #L07592) was cloned in at the 3′-end of this GR-GAL4 construct. The fusion construct prepared in this way (GR-GAL4-humanPPARdelta-LBD) was recloned into the plasmid pcDNA3 (Invitrogen) in order to enable constitutive expression by the cytomegalovirus promoter. This plasmid was linearized with a restriction endonuclease and stably transfected into the previously described cell clone containing the luciferase reporter element. The resulting PPARdelta reporter cell line which contains a luciferase reporter element and constitutively expresses the PPARdelta fusion protein (GR-GAL4-human PPARdelta-LBD) was isolated by selection with zeocin (0.5 mg/ml) and G418 (0.5 mg/ml).
Assay Procedure and Evaluation
The activity of PPARdelta agonists is determined in a 3-day assay in exact analogy to the procedure already described for the PPARalpha reporter cell line except that the PPARdelta reporter cell line and a specific PPARdelta agonist was used as a standard to control test efficacy.
Background: In a reporter assay the amount or activity of a reporter protein is the signal.

A further assay has as its target T2, human PPARalpha (Homo sapiens, UniProt Q07869).
T2 construct: amino acids S167-Y468; expressed in transfected cells; plasmid pcDNA3
T2 sequence (Q07869 167-468): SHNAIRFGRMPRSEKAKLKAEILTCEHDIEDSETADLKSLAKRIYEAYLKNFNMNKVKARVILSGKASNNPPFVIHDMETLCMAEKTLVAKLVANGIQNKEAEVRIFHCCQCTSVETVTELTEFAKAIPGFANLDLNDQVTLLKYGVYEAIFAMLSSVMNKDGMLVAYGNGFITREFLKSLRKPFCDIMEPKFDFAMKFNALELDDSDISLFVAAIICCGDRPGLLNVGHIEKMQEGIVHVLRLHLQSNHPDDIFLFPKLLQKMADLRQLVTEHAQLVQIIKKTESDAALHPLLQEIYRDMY
The assay is described as follows: Cellular PPARalpha assay (human GAL4 luciferase reporter, stably transfected HEK cell line). In kind it is cell-based. As for the experimental part: Determination of EC50 Values of PPAR Agonists in the Cellular PPARalpha Assay
as §1, with “PPARalpha” for “PPARdelta”, “It” for “In analogy to the assay described for PPARalpha, the PPARdelta reporter cell line also”, “(GR-GAL4-humanPPARalpha-LBD)” for “(GR-GAL4-humanPPARdelta-LBD)”, “GR-GAL4-humanPPARalpha-LBD” for “GR-GAL4-humanPPARdelta-LBD”, “weak” for “little”, “stimulate the” for “stimulate”
Construction of the PPARalpha Reporter Cell Line
The PPARalpha reporter cell line was prepared in two stages. Firstly, the luciferase reporter element was constructed and stably transfected into HEK cells. For this purpose, five binding sites of the yeast transcription factor GAL4 (Accession #AF264724) were cloned in 5′-upstream of a 68 bp-long minimal MMTV promoter (Accession #V01175). The minimal MMTV promoter section contains a […] and a TATA element in order to enable efficient transcription by RNA polymerase II. The cloning and sequencing of the GAL4-MMTV construct took place in analogy to the description of Sambrook J. et al. (Molecular cloning, Cold Spring Harbor Laboratory Press, 1989). Then the complete Photinus pyralis gene (Accession #15077) was cloned in 3′-downstream of the GAL4-MMTV element. After sequencing, the luciferase reporter element consisting of five GAL4 binding sites, MMTV promoter and luciferase gene was recloned into a plasmid which confers zeocin resistance in order to obtain the plasmid pdeltaM-GAL4-Luc-Zeo. This vector was transfected into HEK cells in accordance with the statements in Ausubel, F. M. et al. (Current protocols in molecular biology, Vol. 1-3, John Wiley & Sons, Inc., 1995).
In a second step, the PPARalpha fusion protein (GR-GAL4-humanPPARalpha-LBD was introduced into the stable cell clone described. For this purpose, initially the cDNA coding for the N-terminal 76 amino acids of the glucocorticoid receptor (Accession #P04150) was linked to the cDNA section coding for amino acids 1-147 of the yeast transcription factor GAL4 (Accession #P04386). The cDNA of the ligand-binding domain of the human PPARalpha receptor (amino acids S167-Y468; Accession #S74349) was cloned in at the 3′-end of this GR-GAL4 construct. The fusion construct prepared in this way (GR-GAL4-humanPPARalpha-LBD) was recloned into the plasmid pcDNA3 (Invitrogen) in order to enable constitutive expression therein by the cytomegalovirus promoter. This plasmid was linearized with a restriction endonuclease and stably transfected into the previously described cell clone containing the luciferase reporter element. The finished PPARalpha reporter cell line which contains a luciferase reporter element and constitutively expresses the PPARalpha fusion protein (GR-GAL4-human PPARalpha-LBD) was isolated by selection with zeocin (0.5 mg/ml) and G418 (0.5 mg/ml).
The activity of PPARalpha agonists is determined in a 3-day assay, which is described below: […]

The conditions of assay [1]: diabetic animal model; cited from earlier work.
For assay [2] the following is noted: rhesus and cynomolgus monkeys; cited from earlier work.
The conditions of assay [3]: two weeks clinical trials in healthy volunteers; cited from earlier work.

Like-named read-outs stand apart in the source and are kept apart here.

On to `O=c1[nH]c(-c2ccc(OCc3sc(-c4ccc(C(F)(F)F)cc4)nc3CN3CCC(C(F)(F)F)CC3)cc2OC(F)F)no1` [Example 94, 3-{2-Difluoromethoxy-4-[2-(4-trifluoromethyl-phenyl)-4-(4-trifluoromethyl-piperidin-1-ylmethyl)-thiazol-5-ylmethoxy]-phenyl}-4H-1,2,4-oxadiazol-5-one], for which the EC50 (usually the concentration giving half of the maximal effect) is 18 nM at human PPARdelta and 664 nM at human PPARalpha. For `CCCCc1nc(-c2ccc(C(F)(F)F)cc2)sc1COc1ccc(-c2noc(=O)[nH]2)c(C)n1` [Example 100, 3-{6-[4-Butyl-2-(4-trifluoromethyl-phenyl)-thiazol-5-ylmethoxy]-2-methyl-pyridin-3-yl}-4H-[1,2,4]oxadiazol-5-one] the same measures were 8 nM and 315 nM. For `COc1cc(OCc2sc(-c3ccc(C(F)(F)F)cc3)nc2CCCS(C)(=O)=O)ccc1-c1noc(=O)[nH]1` [Example 102, 3-{4-[4-(3-Methanesulfonyl-propyl)-2-(4-trifluoromethyl-phenyl)-thiazol-5-ylmethoxy]-2-methoxy-phenyl}-4H-1,2,4-oxadiazol-5-one] the same measures were 22 nM and 1780 nM.

For `COc1cc(OCc2sc(-c3ccc(C(F)(F)F)cc3)nc2CCCN2CCSCC2)ccc1-c1noc(=O)[nH]1` [Example 103, 3-{2-Methoxy-4-[4-(3-thiomorpholin-4-yl-propyl)-2-(4-trifluoromethyl-phenyl)-thiazol-5-ylmethoxy]-phenyl}-4H-1,2,4-oxadiazol-5-one], the figures for the EC50 at human PPARdelta and at human PPARalpha were 8 nM and 483 nM, respectively. Turning to `CCCc1c(OCCCOc2ccc(OCC(=O)O)cc2)ccc(C(C)=O)c1O` [Example L-165041], the plasma cholesterol result in assay [1] is “raises”. As to `CCCc1c(OCCCSc2nnc(SCC(=O)O)s2)ccc(C(C)=O)c1O` [YM-16638], the plasma lipids result in assay [2] is recorded as “significantly lowers”; in assay [3], “acts in a similar manner”.

Values taken from patent publication US7851493B2, “Phenyl-1,2,4-oxadiazolone derivatives with phenyl group, processes for their preparation and their use as pharmaceuticals” (Sanofi-Aventis, priority 2005, dated 2010).
